What all share (format): in vivo, Cimex lectularius
In assay [1] the test system is bed bugs (C. lectularius). In words: three-dish, dual-choice olfactometer bioassay. The settings on record: Exp. 23-37; nymphs; amounts in micrograms in parentheses of the bait. From the text: Bioassays were run in dual-choice olfactometers and in large Plexiglass arenas (FIG. 19). Dual-choice olfactometers consisted of two lateral Pyrex® glass Petri dishes, connected to a central dish (all dishes 3×9 cm inner diameter) via a Pyrex® glass tube (2.5 cm long×2 cm inner diameter). The dishes in this olfactometer mimic the natural still-air shelters in which bed bugs spend the day. Prior to the start of bioassays, a disc of paper toweling (9 cm diameter) was placed into each dish and a strip of paper toweling (2.4×0.6 cm) was inserted into the connecting glass tubing to provide traction for walking bed bugs. In addition, a piece of filter paper (2×3 cm; Whatman) was placed into each lateral dish and covered with a piece of cardboard (2×2 cm) as a refuge for bioassay insects.
Treatment and control stimuli were randomly assigned to each lateral dish. Olfactometers were enclosed in opaque plastic bins to prevent light from entering and affecting the insects' responses. For each replicate, a single 3rd, 4th, or 5th instar C. lectularius nymph was released into the central chamber of the olfactometer, which was then covered with a glass plate to prevent escape. The single bed bug in each olfactometer was then allowed to explore all chambers. Each insect was released into an olfactometer at the end of the 14-h photophase allowing it to explore the chambers during 10 h of darkness, and to come to rest in one of the shelters during 10 h of light. After this 20-h period, the insect's position within the olfactometer was recorded. Any insects not found in a lateral chamber were recorded as non-responders. All experimental replicates were run at 24±2° C. and 30-60% RH. Olfactometers were washed with Sparkleen detergent (Fisher Scientific Co, Pittsburgh, PA, USA), and were oven-dried (Precision, Winchester, VA, USA) between each bioassay.

Assay [2] concerns bed bugs. In words: large Plexiglass arena bioassay with baited shelters. Particulars: adult males. From the text: The large two-chamber Plexiglass arena (180 cm long×12 cm high×13 cm wide) was designed with a central divider (180 cm long×5.5 cm high) to accommodate two pieces of wood (162 cm long×3.8 cm wide×0.8 cm high), each piece for testing the response of a single bed bug to a pheromone-baited shelter or a control shelter (see insert in FIG. 19) which were randomly assigned to either end of the wood. […] For each replicate, a single bed bug was placed in the center of the wood piece just prior to the end of the 14-h photophase, and its position was scored the next morning after the onset of the photophase.
Experiments 68-75 also investigated the effect of the volatile pheromone components (VPCs) (E)-2-hexenal, (E)-2-octenal, dimethyl disulfide, dimethyl trisulfide and 2-hexanone, and the effect of the less-volatile pheromone component histamine (H), on attraction and arrestment of bed bugs. Treatment stimuli consisted of filter paper (4×2.2 cm) impregnated with H (2,000 μg) and covered with a piece of corrugated cardboard shelter (3×2.2 cm), and of VPCs formulated at a high dose (500 μg; Experiments 68-74) or a medium dose (50 μg; Exp. 75) in mineral oil (0.5 mL) and pipetted into the inverted lid of a 20-ml scintillation vial resting on top of the shelter (FIG. 19). Control stimuli were of identical design but the filter paper contained no H, and the mineral oil contained no VPCs.

The test system of assay [3] is bed bugs. The assay can be described thus: pheromone-baited shelter traps in a heavily infested residential apartment (Room 106). The settings on record: Exp. 76-79, 24-h periods; for Mean ± SE number insects in baited shelter: VPCs total 500 μg, histamine 2,000 μg, nymphal and adult bed bugs; for Mean (±SE) number insects in control shelter: unbaited control shelter paired with the baited shelter.
From the text: To determine whether bed bugs responded to synthetic pheromone lures not only in large arena laboratory bioassays but also in infested premises (residential apartments), we placed pheromone-baited shelter traps (see FIG. 19) in apartments with known or suspected bed bug infestations. […] Based on 24-hour trapping results in multiple apartments, we selected a single, heavily infested apartment (hereafter referred to as Room 106) for further testing of synthetic bed bug pheromone lures.
Replicates (n=15-20) of each experiment consisted of paired shelters placed against a wall or furniture, with approximately 30-cm spacing between paired shelters and >1 m spacing between shelter pairs. For each shelter pair within each experiment, pheromone and control treatments were randomly assigned, and placement of replicates was alternated between the two experiments of Set 1 and Set 2. Because not more than 10 shelter pairs could be accommodated in Room 106 at any time, experimental data were collected over several consecutive 24-h periods. Every morning at 9:00, shelters were collected from Room 106 and immediately placed into separate labelled zipper lock bags which were then put on dry ice to kill the bed bugs that had entered a shelter. Bed bugs in each shelter were later counted in the laboratory under a microscope, noting their developmental stage (1st, 2nd, 3rd, or 4th instar, adult), sex (male, female), and evidence (or not) for blood feeding prior to entry into a shelter. Immediately following the removal of bed bug shelters from Room 106 each morning, new pre-prepared shelters were pheromone-baited (treatment) or not (control) and their position within shelter pairs randomly assigned (see above), again alternating placement of shelter pairs between Experiments 76 and 77 (Set 1) and between Experiments 78 and 79 (Set 2).

Take `NCCc1c[nH]cn1` [H, histamine]: in assay [1], the “No. insects in bait chamber” value worked out at 35. In addition, the “No. insects in control chamber” value in assay [1] stood at 10. The “No. insects not responding” value in assay [1] amounted to 3; in assay [2] (Exp. 68-71, 73, baited shelter 1 vs unbaited shelter 2), 5. Further, the “No. insects in shelter 1” value in assay [2] (Exp. 68-71, 73, baited shelter 1 vs unbaited shelter 2, VPCs 500 μg, histamine 2,000 μg) is reported as 12. Also, the “No. insects in shelter 2” value is listed as 1 in assay [2] (Exp. 68-71, 73, unbaited shelter 2 paired with the baited shelter 1); “one” in assay [2] (Exp. 68-71, 73, unbaited shelter 2 paired with the baited shelter 1, listed as histamine); 14 in assay [2] (Exp. 72, shelter 2 H (2,000 μg) vs shelter 1 VPC (500 μg)); 5 in assay [2] (Exp. 74, shelter 2 H (2,000 μg) vs shelter 1 VPC (500 μg) + H); 0 in assay [2] (Exp. 75, shelter 2 H (2,000 μg) vs shelter 1 VPC (50 μg) + H). Besides, the “Mean ± SE number insects in baited shelter” value in assay [3] was determined as 6.06 ± 1.28; in assay [3] (listed as histamine) it was 6.06. For the same compound, the “Mean (±SE) number insects in control shelter” value in assay [3] was found to be 4.53 ± 1.8; in assay [3] (listed as histamine), 4.53.

Source of the values: patent publication US20250280816A1, “INSECT TRAP” (Scotts Canada Ltd., priority 2017, published 2025).
